Measured values from the NIST ThermoML archive (doi:10.1021/je900048r).
± gives the expanded uncertainty stated by the source.

Assay: xn = mol fraction of the nth substance listed
Settings: Liquid, Other PVT measurement

CCCCn1cc[n+](C)c1.F[B-](F)(F)F [1-butyl-3-methylimidazolium tetrafluoroborate] + CC#N
mass density [kg/m3]
Settings | x1 = 0.1 | x1 = 0.2 | x1 = 0.3 | x1 = 0.4 | x1 = 0.5 | x1 = 0.6 | x1 = 0.6999 | x1 = 0.7998 | x1 = 0.8993 | x1 = 1
353.15 K, 2000 kPa | – | – | – | – | – | 1100 ± 11 | 1120 ± 11 | 1135 ± 11 | 1149 ± 12 | 1161 ± 12
393.15 K, 600 kPa | 820 ± 8 | 914 ± 9 | 978 ± 10 | 1018 ± 10 | 1048 ± 11 | 1072 ± 11 | 1092 ± 11 | 1108 ± 11 | 1123 ± 11 | 1135 ± 11
393.15 K, 1000 kPa | 821 ± 8 | 915 ± 9 | 978 ± 10 | 1018 ± 10 | 1048 ± 11 | 1072 ± 11 | 1092 ± 11 | 1108 ± 11 | 1123 ± 11 | 1135 ± 11
393.15 K, 1400 kPa | 821 ± 8 | 915 ± 9 | 979 ± 10 | 1019 ± 10 | 1048 ± 11 | 1073 ± 11 | 1092 ± 11 | 1108 ± 11 | 1123 ± 11 | 1135 ± 11
393.15 K, 1800 kPa | 822 ± 8 | 915 ± 9 | 979 ± 10 | 1019 ± 10 | 1049 ± 11 | 1073 ± 11 | 1093 ± 11 | 1108 ± 11 | 1123 ± 11 | 1136 ± 11
393.15 K, 2000 kPa | 822 ± 8 | 916 ± 9 | 979 ± 10 | 1019 ± 10 | 1049 ± 11 | 1073 ± 11 | 1093 ± 11 | 1108 ± 11 | 1124 ± 11 | 1136 ± 11
433.15 K, 1000 kPa | 781 ± 8 | 881 ± 9 | 947 ± 9 | 989 ± 10 | 1021 ± 10 | 1045 ± 10 | 1066 ± 11 | 1082 ± 11 | 1098 ± 11 | 1112 ± 11
433.15 K, 1400 kPa | 782 ± 8 | 882 ± 9 | 948 ± 10 | 990 ± 10 | 1021 ± 10 | 1045 ± 10 | 1066 ± 11 | 1082 ± 11 | 1098 ± 11 | 1112 ± 11
433.15 K, 1800 kPa | 783 ± 8 | 882 ± 9 | 948 ± 10 | 990 ± 10 | 1021 ± 10 | 1046 ± 10 | 1067 ± 11 | 1083 ± 11 | 1098 ± 11 | 1113 ± 11
433.15 K, 2000 kPa | 783 ± 8 | 882 ± 9 | 949 ± 10 | 990 ± 10 | 1021 ± 10 | 1046 ± 10 | 1067 ± 11 | 1083 ± 11 | 1099 ± 11 | 1113 ± 11
473.15 K, 1800 kPa | 741 ± 7 | 847 ± 9 | 917 ± 9 | 960 ± 10 | 993 ± 10 | 1018 ± 10 | 1040 ± 10 | 1057 ± 11 | 1072 ± 11 | 1086 ± 11
473.15 K, 2000 kPa | 742 ± 7 | 848 ± 9 | 917 ± 9 | 960 ± 10 | 993 ± 10 | 1019 ± 10 | 1041 ± 10 | 1057 ± 11 | 1073 ± 11 | 1087 ± 11
